Laboratory results published in patent US20050113283A1, “Methods of treating conditions associated with an EDG-4 receptor” (priority 2002, published 2005).
“Also recorded” adds a separate entry of the source.

Key:
Format in all cases: cell-based
human Edg-4 receptor [1] = target: T1, human Edg-4 receptor (Homo sapiens, UniProt Q9HBW0); assay: Calcium mobilization assay (FLIPR), HTC rat hepatoma cells transfected with human Edg-4; settings: for inhibition of LPA-induced calcium mobilization, human Edg-4: clonal HTC cell line, FIG. 11; for EC50: agonist
T1 construct: IC50 Edg-4; other: agonist, calcium mobilization; potency relative to compound 101; calcium response (agonist)
T1 sequence (Q9HBW0 1-340 limits assumed): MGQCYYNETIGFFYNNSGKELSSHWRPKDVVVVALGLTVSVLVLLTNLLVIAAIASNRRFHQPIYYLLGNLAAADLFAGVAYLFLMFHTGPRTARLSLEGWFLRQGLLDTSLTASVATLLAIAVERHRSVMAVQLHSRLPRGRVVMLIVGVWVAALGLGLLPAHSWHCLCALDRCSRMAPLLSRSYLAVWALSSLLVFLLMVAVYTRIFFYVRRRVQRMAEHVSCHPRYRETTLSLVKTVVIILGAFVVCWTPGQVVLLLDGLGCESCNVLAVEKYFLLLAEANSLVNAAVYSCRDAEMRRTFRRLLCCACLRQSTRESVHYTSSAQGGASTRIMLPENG
Source text: (§1) LPA receptors such as Edg-4, couple to calcium effector pathways, and result in increases in intracellular calcium following receptor activation (An et al., Molecular Pharmacology, 54:881-888, 1998, incorporated herein by reference). This biological response lends itself to a very efficient, high-throughput screen using a Fluorescence Imaging Plate Reader (FLIPR; Molecular Devices, Sunnyvale, Calif.). The FLIPR system is a real-time, cell-based assay system with continuous fluorescence detection using a cooled CCD camera. The FLIPR system was used to developing an Edg-4 receptor screen. Rat hepatoma cells stably expressing Edg-4 receptor were plated on 384-well plates and loaded with a calcium dye loading kit (Molecular Devices, Sunnyvale, Calif.) for 1 hour at room temperature. Cells were then placed on the FLIPR^354 (Molecular Devices, Sunnyvale, Calif.) and excited by an argon laser at 488 nm. The data for the entire 384-well plate was updated every second. An integrated robotic pipettor allowed for simultaneous compound addition into each individual well in the plate.

rat Edg-4 receptor = assay: LPA induced calcium mobilization, HTC cells transfected with pooled rat Edg-4 clones; settings: pooled HTC population, FIG. 12
Source text: as §1

mouse Edg-4 receptor = target: T2, mouse Edg-4 receptor (Mus musculus, UniProt Q9JL06); assay: LPA induced calcium mobilization, HTC cells transfected with pooled mouse Edg-4 clones; settings: pooled HTC population, FIG. 13
T2 construct: expressed in transfected cells; host or cells: HTC rat hepatoma cells, pooled population
T2 sequence (Q9JL06 whole entry): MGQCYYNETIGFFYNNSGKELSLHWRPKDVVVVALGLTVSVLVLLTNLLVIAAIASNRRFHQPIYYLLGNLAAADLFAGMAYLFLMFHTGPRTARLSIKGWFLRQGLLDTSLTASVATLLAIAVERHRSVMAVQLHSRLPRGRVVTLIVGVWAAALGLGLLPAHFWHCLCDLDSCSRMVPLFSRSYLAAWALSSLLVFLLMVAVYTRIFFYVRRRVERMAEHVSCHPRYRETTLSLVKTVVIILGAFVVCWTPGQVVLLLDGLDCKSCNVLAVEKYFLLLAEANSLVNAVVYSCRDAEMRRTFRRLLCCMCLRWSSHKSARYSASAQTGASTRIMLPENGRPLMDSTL
Source text: as §1

Edg-1 = target: T3, Edg-1 (Homo sapiens, UniProt P21453); assay: Calcium mobilization assay (FLIPR), HTC cells expressing Edg 1; settings: for EC50: agonist
T3 construct: expressed in transfected cells; host or cells: HTC rat hepatoma cells (from the earlier reading)
T3 sequence (P21453 whole entry): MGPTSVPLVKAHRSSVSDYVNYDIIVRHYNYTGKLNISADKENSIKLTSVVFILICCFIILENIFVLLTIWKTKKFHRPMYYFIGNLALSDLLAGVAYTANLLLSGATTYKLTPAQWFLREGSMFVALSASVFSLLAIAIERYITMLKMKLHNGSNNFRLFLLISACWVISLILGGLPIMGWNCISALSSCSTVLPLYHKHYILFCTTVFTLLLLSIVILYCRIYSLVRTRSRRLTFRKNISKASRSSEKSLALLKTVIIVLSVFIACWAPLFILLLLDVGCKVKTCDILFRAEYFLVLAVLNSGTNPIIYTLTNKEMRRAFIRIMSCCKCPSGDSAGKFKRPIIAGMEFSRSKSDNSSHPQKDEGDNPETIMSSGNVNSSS

Edg-2 = target: T4, Edg-2 (Homo sapiens, UniProt Q92633); assay: Calcium mobilization assay (FLIPR), HTC cells expressing Edg 2; settings: for EC50: agonist
T4 construct: expressed in transfected cells; host or cells: HTC rat hepatoma cells (from the earlier reading)
T4 sequence (Q92633 whole entry): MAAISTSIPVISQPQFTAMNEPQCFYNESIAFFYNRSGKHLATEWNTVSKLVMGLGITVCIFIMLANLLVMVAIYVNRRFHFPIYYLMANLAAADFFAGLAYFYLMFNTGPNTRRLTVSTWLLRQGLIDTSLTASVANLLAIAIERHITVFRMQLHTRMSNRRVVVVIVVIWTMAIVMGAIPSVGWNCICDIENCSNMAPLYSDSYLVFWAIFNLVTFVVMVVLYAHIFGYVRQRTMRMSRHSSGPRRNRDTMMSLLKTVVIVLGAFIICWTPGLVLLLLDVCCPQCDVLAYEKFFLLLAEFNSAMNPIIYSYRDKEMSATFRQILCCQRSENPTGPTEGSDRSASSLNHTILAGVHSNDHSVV

Edg-3 = target: T5, Edg-3 (Homo sapiens, UniProt Q99500); assay: Calcium mobilization assay (FLIPR), HTC cells expressing Edg 3; settings: for EC50: agonist
T5 construct: expressed in transfected cells; host or cells: HTC rat hepatoma cells (from the earlier reading)
T5 sequence (Q99500 whole entry): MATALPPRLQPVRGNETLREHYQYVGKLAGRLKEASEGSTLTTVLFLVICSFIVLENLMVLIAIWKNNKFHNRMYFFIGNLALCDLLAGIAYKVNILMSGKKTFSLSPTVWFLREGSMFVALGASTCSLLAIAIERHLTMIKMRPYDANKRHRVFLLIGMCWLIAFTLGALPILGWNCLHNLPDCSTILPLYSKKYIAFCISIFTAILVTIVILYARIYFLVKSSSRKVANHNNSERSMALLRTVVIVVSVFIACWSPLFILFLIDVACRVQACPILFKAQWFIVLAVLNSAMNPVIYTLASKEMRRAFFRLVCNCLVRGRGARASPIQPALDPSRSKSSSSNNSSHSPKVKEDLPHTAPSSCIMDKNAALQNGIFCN

human Edg-4 receptor [2] = assay: Calcium mobilization assay (FLIPR), HTC rat hepatoma cells transfected with human Edg-4; settings: Edg-4 relative to other Edg receptors; for Fold Selectivity for Edg-4 (EC50): agonists
Source text: as §1

Edg-5 = target: T6, Edg-5 (Homo sapiens, UniProt O95136); assay: Calcium mobilization assay (FLIPR), HTC cells expressing Edg 5; settings: for EC50: agonist
T6 construct: expressed in transfected cells; host or cells: HTC rat hepatoma cells (from the earlier reading)
T6 sequence (O95136 whole entry): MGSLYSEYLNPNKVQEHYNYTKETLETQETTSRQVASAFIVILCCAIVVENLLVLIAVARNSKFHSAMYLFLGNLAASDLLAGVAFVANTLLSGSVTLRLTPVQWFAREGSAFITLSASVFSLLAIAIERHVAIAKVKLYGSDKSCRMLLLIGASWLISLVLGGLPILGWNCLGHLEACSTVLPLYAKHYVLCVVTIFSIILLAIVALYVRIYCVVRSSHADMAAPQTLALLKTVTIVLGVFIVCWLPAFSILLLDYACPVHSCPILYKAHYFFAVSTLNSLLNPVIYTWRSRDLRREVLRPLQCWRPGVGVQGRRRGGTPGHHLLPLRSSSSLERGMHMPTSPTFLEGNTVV

Edg-6 = target: T7, Edg-6 (Homo sapiens, UniProt O95977); assay: Calcium mobilization assay (FLIPR), HTC cells expressing Edg 6; settings: for EC50: agonist
T7 construct: expressed in transfected cells; host or cells: HTC rat hepatoma cells (from the earlier reading)
T7 sequence (O95977 1-384): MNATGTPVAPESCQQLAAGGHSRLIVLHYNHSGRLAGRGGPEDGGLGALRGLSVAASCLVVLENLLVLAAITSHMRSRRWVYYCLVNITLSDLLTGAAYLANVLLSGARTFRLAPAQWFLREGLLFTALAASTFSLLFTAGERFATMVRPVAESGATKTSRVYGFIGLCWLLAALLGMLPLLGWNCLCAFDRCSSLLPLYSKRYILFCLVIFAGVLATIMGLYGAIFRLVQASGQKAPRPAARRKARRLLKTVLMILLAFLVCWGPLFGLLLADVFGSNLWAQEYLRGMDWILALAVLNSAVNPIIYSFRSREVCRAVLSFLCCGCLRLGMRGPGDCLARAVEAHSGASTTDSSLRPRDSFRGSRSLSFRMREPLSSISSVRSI

Edg-7 = target: T8, Edg-7 (Homo sapiens, UniProt Q9UBY5); assay: Calcium mobilization assay (FLIPR), HTC cells expressing Edg 7; settings: calcium mobilization; for EC50: agonist
T8 construct: expressed in transfected cells; host or cells: HTC rat hepatoma cells (from the earlier reading)
T8 sequence (Q9UBY5 1-353): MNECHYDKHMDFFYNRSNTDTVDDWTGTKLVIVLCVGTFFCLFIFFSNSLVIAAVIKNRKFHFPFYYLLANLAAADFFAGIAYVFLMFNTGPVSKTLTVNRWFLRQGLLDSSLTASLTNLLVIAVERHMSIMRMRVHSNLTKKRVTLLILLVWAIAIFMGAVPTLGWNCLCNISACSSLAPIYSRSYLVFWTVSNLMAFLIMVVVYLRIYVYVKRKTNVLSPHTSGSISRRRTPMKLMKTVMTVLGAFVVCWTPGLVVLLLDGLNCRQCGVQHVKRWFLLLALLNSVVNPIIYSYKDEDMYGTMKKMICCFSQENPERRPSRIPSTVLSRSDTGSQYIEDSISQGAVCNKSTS

Edg-8 = target: T9, Edg-8 (Homo sapiens, UniProt Q9H228); assay: Calcium mobilization assay (FLIPR), HTC cells expressing Edg 8; settings: for EC50: agonist
T9 construct: expressed in transfected cells; host or cells: HTC rat hepatoma cells (from the earlier reading)
T9 sequence (Q9H228 whole entry): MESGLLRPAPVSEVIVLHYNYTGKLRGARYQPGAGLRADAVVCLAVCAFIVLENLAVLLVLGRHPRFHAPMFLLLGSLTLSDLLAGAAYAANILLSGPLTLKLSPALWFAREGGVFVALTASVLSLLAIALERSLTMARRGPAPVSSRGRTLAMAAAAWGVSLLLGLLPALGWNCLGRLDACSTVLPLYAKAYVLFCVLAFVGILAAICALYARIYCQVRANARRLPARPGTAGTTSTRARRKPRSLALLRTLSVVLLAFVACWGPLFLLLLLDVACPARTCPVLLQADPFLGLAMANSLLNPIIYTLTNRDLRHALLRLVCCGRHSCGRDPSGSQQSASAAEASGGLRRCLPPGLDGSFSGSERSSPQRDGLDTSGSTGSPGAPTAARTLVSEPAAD

[3] = Calcium mobilization assay, Null; settings: agonist
Source text: as §1

[4] = system: CaOV3 human ovarian cancer cells; assay: Migration assay, LPA stimulated chemotaxis; settings: CaOV3, FIG. 9
Procedure: Cells were plated in a 24 well format using Fluoroblok filter insert plates ([…]) or Fluoroblok matrigel coated filter insert plates (Becton Dickinson, San Diego, Calif.). The assay was a modified Boyden Chamber assay in which a cell suspension (1 ×10^5 cells/ml) was prepared in serum free medium and added to the top chamber. LPA or SIP (doses ranged from 0.1-10 μM in serum free medium) was added to the bottom chamber. Following a 20-24 hour incubation period, the number of cells migrating or invading into the lower chamber was quantitated by transferring the filter insert into a fresh 24-well plate containing 4 μg/ml calcein AM (Molecular Probes, Sunnyvale, Calif.) in Hank's Balanced Salt Solution and staining for one hour.
Detection was via fluorescent readout at 450 nm excitation/530 nm emission using a fluorimeter. The level of fluorescence correlated with cell number.
For most cells types, no further manipulation was required. For CaOV3 human ovarian cancer cells, however, it was necessary that the cells be serum starved overnight prior to preparing the cell suspension. In addition, the filter inserts were coated with a solution of 1 mg/ml rat-tail Collagen I (BD, SanDiego, Calif.).

inhibition of LPA-induced calcium mobilization, human Edg-4 (human Edg-4 receptor [1]) | inhibition of LPA-induced calcium mobilization, mouse Edg-4 (mouse Edg-4 receptor) | EC50 (Edg-1) [µM] | EC50 (Edg-2) [µM] | EC50 (Edg-3) [µM] | EC50 (human Edg-4 receptor [1]; calcium mobilization) [µM] | Fold Selectivity for Edg-4 (EC50) (human Edg-4 receptor [2]) | EC50 (Edg-5) [µM] | EC50 (Edg-6) [µM] | EC50 (Edg-7) [µM] | EC50 (Edg-8) [µM] | EC50 [3] [µM] | Molecule | inhibition of LPA-induced calcium mobilization, rat Edg-4 (rat Edg-4 receptor) | further results
dose dependent inhibition | dose dependent inhibition | – | – | – | – | – | – | – | – | – | – | COc1cccc(-c2cc(NC(=O)CC(=O)C(F)(F)F)[nH]n2)c1 [Compound 113, 4,4,4-trifluoro-N-[5-(3-methoxy-phenyl)-2H-pyrazol-3-yl]-3-oxo-butyramide] | dose dependent inhibition | –
– | – | – | – | – | – | – | – | – | – | – | – | O=C1NN=C(c2ccccc2)C(c2c[nH]c3ccccc23)N1 (centres unmarked) [Compound 121, 5-(1H-Indol-3-yl)-6-phenyl-4,5-dihydro-2H-[1,2,4]triazin-3-one] | – | IC50 (Edg-1; inhibition): > 20 µM; IC50 (Edg-2; inhibition): > 20 µM; IC50 (Edg-3; inhibition): > 20 µM; IC50 (human Edg-4 receptor [1]; inhibition, calcium mobilization): 3.6 µM; Fold-selectivity for Edg-4 (IC50) (human Edg-4 receptor [2]; antagonists): >5.6; IC50 (Edg-5; inhibition): > 20 µM; IC50 (Edg-6; inhibition): > 20 µM; IC50 (Edg-7; inhibition): > 20 µM; IC50 (Edg-8; inhibition): > 20 µM
– | – | > 25 | > 25 | > 25 | 5.4 | >4.6 | > 25 | > 25 | > 25 | > 25 | > 25 | FC(F)(F)c1ccc2nnc(-c3cccc(Cl)c3Cl)n2c1 [Compound 129, 3-(2,3-dichlorophenyl)-6-trifluoromethyl[1,2,4]triazolo[4,3-a]pyridine] | – | –
– | – | > 25 | > 25 | > 25 | 9.9 | >2.5 | > 25 | > 25 | > 25 | > 25 | > 25 | FC(F)(F)c1ccc2nnc(-c3c(Cl)cccc3Cl)n2c1 [Compound 131, 3-(2,6-dichlorophenyl)-6-trifluoromethyl-[1,2,4]triazolo [4,3-a]pyridine] | – | –
dose dependent inhibition | dose dependent inhibition | – | – | – | – | – | – | – | – | – | – | N-[5-(3,4-dichloro-phenyl)-2H-pyrazol-3-yl]4,4,4-trifluoro-3-oxo-butyramide [Compound 103] | dose dependent inhibition | inhibition of calcium response elicited by agonist 125 (human Edg-4 receptor [1]; HTC cells transfected with human Edg-4, FIG. 15): inhibited; potency relative to compound 101 (human Edg-4 receptor [1]; dose response curve, FIG. 2): 2-3 fold; inhibition of LPA stimulated chemotaxis [4]: effectively blocked; also recorded: did inhibit
